Experimental data reported in US20250144109A1, “Compositions for preventing or treating pulmonary arterial hypertension” (CHONG KUN DANG PHARMACEUTICAL CORP., priority 2022, published 2025).

Key:
[1] = tested on: tubulin acetylation in HPAEC (Human pulmonary artery endothelial cells); assay: Tubulin acetylation in HPAEC by Western blot (anti-acetyl tubulin); assay type: cell-based; conditions: 4 hours at 37° C., concentration 0.1μ, FIG. 1
Experimental: HPAEC (3.0×10^5 cells/well, Human pulmonary artery endothelial cells) pulmonary artery endothelial cells were seeded in a six-well plate, and then treated with drugs (compounds 43, 295, 296, 40, 239, and 285) at each concentration. In four hours later at 37° C., proteins were extracted with lysis buffer and quantified by Bradford method. 5 μg of proteins were dissolved in sample buffer, subjected to electrophoresis on 4-12% gradient gel, transferred to a nitrocellulose membrane for seven minutes, and blocked in a 3% BSA solution for one hour. Anti-acetyl tubulin (1:1,000) and GAPDH (1:2,000) were added to the 3% BSA solution, after which the membrane was immersed therein and reacted at 4° C. for 10 hours, and then washed three times with 1×TBST for 10 minutes, respectively. IgG-HRP antibody (1:5,000) was added to 5% BSA, after which the membrane was immersed therein and reacted at room temperature for one hour, and then washed three times with 1×TBST for 10 minutes, respectively. In above FIG. 1, a control group indicates cells not treated with the compounds of Synthesis Examples.

HPAEC cells = assay: Cell viability (CCK-8) of TGF-β stimulated HPAEC cells; assay type: cell-based, Human; conditions: 1 μM drug with TGF-β 10 ng/ml, 48 hours, vs TGF-β only, FIG. 2
Experimental: TGF-β stimulation to HPAEC cells, which are a model of pulmonary arterial hypertension disease, and the survival rate according to the compounds of Synthesis Examples 1 to 6 were confirmed through cell viability measurement.
HPAEC (2.0×10^3 cells/well) cells were seeded in 96-well plate, and cultured for 24 hours in a serum free medium as starvation. 1 μM concentration of drugs (compounds 43, 295, 296, 40, 239, 285) were simultaneously treated with TGF-β (10 ng/ml) and cultured for 48 hours, after which cell viability was measured through CCK-8 assay, and the results thereof are shown in FIG. 2. In above FIG. 2, a control group indicates cells not treated with TGF-β and the compounds of Synthesis Examples, and “-” indicates cells treated only with TGF-β.

[2] = tested on: HPASMC (human pulmonary artery smooth muscle) cells; assay: Cell proliferation inhibition (CCK-8) in TGF-β stimulated HPASMC cells; assay type: cell-based; conditions: 1 μM drug with TGF-β 10 ng/ml, 24 hours, vs TGF-β only, FIG. 3
Experimental: TGF-β stimulation to HPASMC (human pulmonary artery smooth muscle) cells, which are a model of pulmonary arterial hypertension disease, and a cell proliferation inhibition rate according to treatment with six compounds of Synthesis Examples 1 to 6 were confirmed through cell viability measurement.
HPASMC (5.0×10^3 cells/well) cells were seeded in 96-well plate, and cultured for 24 hours in a serum free medium as starvation. 1 μM concentration of drugs (compounds 43, 295, 296, 40, 239, 285) were simultaneously treated with TGF-β (10 ng/ml) and cultured for 24 hours, after which cell viability was measured through CCK-8 assay, and the results thereof are shown in FIG. 3. In above FIG. 3, a control group indicates cells not treated with TGF-β and the compounds of Synthesis Examples, and “-” indicates cells treated only with TGF-β.

[3] = tested on: SD rats with monocrotaline (MCT)-induced pulmonary arterial hypertension; assay: MCT-induced pulmonary arterial hypertension animal model (survival, lung and ventricle weights, ECG); assay type: in vivo, rat; conditions: 20 mg/kg oral twice a day
Experimental: SD rats having the following conditions were prepared.
Rats, experimental animals, were divided into groups as follows in consideration of a body weight on the day before drug administration began.
During a test period, the normal group was dosed with saline, and the control group (MCT+Vehicle) was subcutaneously dosed with a monocrotaline (MCT) aqueous solution once at 3 ml/Kg, and then dosed with a vehicle consisting of a mixed solution of cremophor EL, ethanol, and saline at a volume ratio of 1:1:8. A MCT aqueous solution was prepared to reach a concentration of 20 mg/mL in a solvent adjusted to pH 7.4 using a 1 N NAOH solution in 1 N HCL. After that, subcutaneous administration was performed by adjusting to […].
The drug administration group was first subcutaneously dosed with the MCT aqueous solution at 3 ml/Kg once, and then orally dosed with compound 43 (the compound of Synthesis Example 1) at 20 mg/Kg twice a day during the test period (four weeks). The compound 43 was dissolved in a mixed solution of cremophor EL, ethanol, and saline at a volume ratio of 1:1:8, and then orally administered.
All data were expressed as mean±standard error, and each group and the control group were compared using an unpaired T test (p<0.05) to determine the effect of each experimental group.
After group separation and then administration of the MCT aqueous solution, the survival rate was evaluated by confirming a dead individual during the test period.
The individual survival rate was calculated by reflecting the number of animals surviving in the corresponding week from the first 10 animals participating in the experiment for each group. Each number on the left side of the line graph means an individual survival rate % (number of surviving individuals/total number of animals participating in experiment).
After four weeks of the test period, the lung and the heart were removed to measure the weight of the lung and the weight of left ventricle and right ventricle in each group, and the results are shown in FIGS. 5 and 6.
After four weeks of the test period, the animal was subjected to inhalation anesthesia with isoflurane, and electrodes were attached to the limbs to measure the animal's electrocardiogram for more than 30 seconds. The result was measured using a Bio Amp ECG meter and analysis was performed using LabChart 8 software.

[4] = MCT rats, after four weeks, vs control group

Row | Compound | tubulin acetylation (acetyl tubulin expression level) [1] | survival rate (cell viability) after TGF-β stimulation (HPAEC cells) | proliferation rate after TGF-β stimulation [2] | individual survival rate ([3]; MCT 50 mg/kg s.c. once, four weeks, vehicle control 50%, FIG. 4) | JT interval (ECG) [3, 4] | QT interval (ECG) [3, 4] | QTc (ECG) [3, 4] | ratio of right ventricle weight to left ventricle weight ([3]; MCT rats, after four weeks, vs control group, FIG. 6)
1 | O=C(N1CCS(=O)(=O)CC1)N(Cc1ccc(-c2nnc(C(F)F)o2)cn1)c1cccc(Cl)c1 [Compound 239, N-(3-chlorophenyl)-N-((5-(5-(difluoromethyl)-1,3,4-oxadiazol-2-yl)pyridin-2-yl)methyl)thiomorpholine-4-carboxamide 1,1-dioxide] | tubulin acetylation was expressed | improved | inhibited |  |  |  |  | 
2 | O=C(N1CCS(=O)(=O)CC1)N(Cc1ccc(-c2nnc(C(F)F)o2)cc1F)c1ccc(F)cc1 [Compound 285, N-(4-(5-(difluoromethyl)-1,3,4-oxadiazol-2-yl)-2-fluorobenzyl)-N-(4-fluorophenyl)thiomorpholine-4-carboxamide 1,1-dioxide] | tubulin acetylation was expressed | improved | inhibited |  |  |  |  | 
3 | O=C(N1CCS(=O)(=O)CC1)N(Cc1ccc(-c2nnc(C(F)F)o2)cc1F)c1ccccc1 [Compound 40, N-(4-(5-(difluoromethyl)-1,3,4-oxadiazol-2-yl)-2-fluorobenzyl)-N-phenylthiomorpholine-4-carboxamide 1,1-dioxide] | tubulin acetylation was expressed | improved | inhibited |  |  |  |  | 
4 | O=C(N1CCS(=O)(=O)CC1)N(Cc1ccc(-c2nnc(C(F)F)o2)cn1)c1ccccc1 [Compound 43, N-((5-(5-(difluoromethyl)-1,3,4-oxadiazol-2-yl)pyridin-2-yl)methyl)-N-phenylthiomorpholine-4-carboxamide 1,1-dioxide] | tubulin acetylation was expressed | improved | inhibited | 90% | significantly reduced | significantly reduced | significantly reduced | significantly reduced
5 | O=C(N1CCS(=O)(=O)CC1)N(Cc1ccc(-c2nnc(C(F)F)o2)cn1)c1ccc(F)cc1 [Compound 295, N-((5-(5-(difluoromethyl)-1,3,4-oxadiazol-2-yl)pyridin-2-yl)methyl)-N-(4-fluorophenyl)thiomorpholine-4-carboxamide 1,1-dioxide] | tubulin acetylation was expressed | improved | inhibited |  |  |  |  | 
6 | O=C(N1CCS(=O)(=O)CC1)N(Cc1ccc(-c2nnc(C(F)F)o2)cn1)c1cccc(F)c1 [Compound 296, N-((5-(5-(difluoromethyl)-1,3,4-oxadiazol-2-yl)pyridin-2-yl)methyl)-N-(3-fluorophenyl)thiomorpholine-4-carboxamide 1,1-dioxide] | tubulin acetylation was expressed | improved | inhibited |  |  |  |  | 
